Values of other authors in patent publication US7875639B2, “Compounds as cannabinoid receptor ligands and uses thereof” (priority 2006, dated 2011).

Legend:
[1] = at fully efficacious doses
[2] = test system: rodent models; conditions: rodent models of neuropathic, incisional, and both chronic and acute inflammatory pain
[3] = test system: rat; conditions: rat formalin model of persistent pain
[4] = test system: CB1I receptor knockout mice; conditions: CB1 receptor knockout mice
[5] = test system: apolipoprotein F knockout mice; conditions: low doses
[6] = test system: animal models; conditions: animal models of acute thermal pain, persistent pain, inflammatory pain and neuropathic pain
[7] = test system: microglia; conditions: in vitro
[8] = test system: mice; conditions: model for post-menopausal osteoporosis
[9] = test system: osteoclast

## COc1ccc2c(c1)c(CCN1CCOCC1)c(C)n2C(=O)c1cccc(Cl)c1Cl [GW405833]
[1]
  typical CB1 receptor-mediated CNS side effects: devoid of typical CB1 receptor-medicated CNS side effects
[2]
  efficacy in pain models: is efficacious

## CCCCCCC(C)(C)c1cc(OC)c([C@@H]2C=C(CO)[C@@H]3C[C@H]2C3(C)C)c(OC)c1 [HU-308]
[3]
  antinociceptive response: elicits an antinociceptive response

## (−)-Δ^9-Tetrahydrocannabinol [Δ^9-THC]
[4]
  analgesic efficacy: retains some analgesic efficacy
[5]
  progression of atherosclerotic lesions: slowed the progression of atherosclerotic lesions

## CN1CCCCC1Cn1cc(C(=O)c2cc([N+](=O)[O-])ccc2I)c2ccccc21 (stereo not shown) [AM-1241]
[6]
  analgesic efficacy: exhibits robust analgesic efficacy
[1]
  typical CB1 receptor-mediated CNS side effects: devoid of typical CB1 receptor-medicated CNS side effects

## CCCC(C)(C)c1ccc2c(c1)OC(C)(C)[C@@H]1CC=C(C)C[C@@H]21 [JWH-133]
[7]
  β-amyloid-induced microglial activation and neurotoxicity: abrogated β-amyloid-induced microglial activation and neurotoxicity

## SR144528
[8]
  ovariectomy-induced bone loss: reverse ovariectomy-induced bone loss
[9]
  osteoclast activity: inhibit osteoclast activity
